Results on one compound are retold here after patent publication EP4011353A1 (Beiersdorf AG, priority 2020, dated 2022).

Common to all, as to assay type: physicochemical
Data set [1] is described as follows: degradation of vitamin C at 40°C over 16 weeks, eutectic solvent compared to water (figure 1). The conditions noted are these: 5 % vitamin C in eutectic solvent (5% vitamin C, 40% betaine, 55% glycerol) compared to water, 40 degrees.
Data set [2] can be described thus: color stability of vitamin C in closed and open glass flasks after 3 months at room temperature (figure 2).
Data set [3] in a line: degradation of ascorbic acid after addition of water or ethanol to the eutectic liquid. The conditions noted are these: addition of water or ethanol up to 15%, preferably up to 10%. From the text:
This liquid, stable at room temperature, can be incorporated into cosmetic formulas.

`O=C1O[C@H]([C@@H](O)CO)C(O)=C1O` [vitamin C, ascorbic acid]: in data set [1], the “degradation of vitamin C” value is on record as “enhanced protection”. For the same compound, the “stability of vitamin C” value was “unstable” in data set [2] (21% vitamin C in water, closed bottles); “unstable” in data set [2] (21% vitamin C in water, opened glass bottles); “stable” in data set [2] (in betaine and glycerol (21% vitamin C, 29% betaine, 50% glycerin), closed bottles). The “degradation of the ascorbic acid” value in data set [3] was “without increased degradation”.
